Reference: PubChem BioAssay (NCI)
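These data come from cells grown in 96-well plates and exposed to compound for 48 hours at five concentrations. GI50 marks 50% less growth. The concentration for full growth arrest is given as TGI.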

Key:
Assay in all cases: inhibition of tumour cell growth, NCI panel, 48 h; in the data active = GI50 below about 0.43 µM; inactive = the rest
[1] = test system: 786-0 renal
[2] = test system: A498 renal
[3] = test system: A549 NSCLC
[4] = test system: ACHN renal
[5] = test system: CAKI-1 renal
[6] = test system: CCRF-CEM leukemia
[7] = test system: COLO 205 colon
[8] = test system: DLD-1 colon
[9] = test system: DMS 114 small cell lung
[10] = test system: DMS 273 small cell lung
[11] = test system: EKVX NSCLC
[12] = test system: HCC-2998 colon
[13] = test system: HCT-116 colon
[14] = test system: HCT-15 colon
[15] = test system: HL-60(TB) leukemia
[16] = test system: HOP-62 NSCLC
[17] = test system: HT29 colon
[18] = test system: IGROV1 ovarian
[19] = test system: K-562 leukemia
[20] = test system: KM12 colon
[21] = test system: KM20L2 colon
[22] = test system: LXFL 529 NSCLC
[23] = test system: M19-MEL melanoma
[24] = test system: MOLT-4 leukemia
[25] = test system: NCI-H23 lung
[26] = test system: NCI-H460 lung
[27] = test system: OVCAR-3 ovarian
[28] = test system: OVCAR-4 ovarian
[29] = test system: OVCAR-8 ovarian
[30] = test system: RPMI-8226 leukemia
[31] = test system: RXF 393 renal
[32] = test system: RXF-631 renal
[33] = test system: SF-295 CNS
[34] = test system: SF-539 CNS
[35] = test system: SK-MEL-2 melanoma
[36] = test system: SK-MEL-28 melanoma
[37] = test system: SK-OV-3 ovarian
[38] = test system: SN12C renal
[39] = test system: SNB-19 CNS
[40] = test system: SNB-75 CNS
[41] = test system: SNB-78 CNS
[42] = test system: SR leukemia
[43] = test system: SW-620 colon
[44] = test system: U251 CNS
[45] = test system: UACC-257 melanoma
[46] = test system: UACC-62 melanoma
[47] = test system: UO-31 renal
[48] = test system: XF 498 CNS
[49] = test system: HOP-18 NSCLC
[50] = test system: HOP-92 NSCLC
[51] = test system: LOX IMVI melanoma
[52] = test system: M14 melanoma
[53] = test system: MALME-3M melanoma
[54] = test system: OVCAR-5 ovarian
[55] = test system: SF-268 CNS
[56] = test system: SK-MEL-5 melanoma
[57] = test system: TK-10 renal
[58] = test system: NCI-H522 lung

COc1ccc(-c2cc(=O)c3cc(C)c(C)c(C(=O)O)c3o2)cc1
94.4 µM: TGI [4]
30.7 µM: TGI [46]
> 100 µM: TGI [1] | TGI [2] | TGI [3] | TGI [5] | TGI [6] | TGI [7] | TGI [8] | TGI [10] | TGI [11] | TGI [12] | TGI [13] | TGI [14] | TGI [15] | TGI [16] | TGI [17] | TGI [18] | TGI [19] | TGI [20] | TGI [21] | TGI [22] | TGI [23] | TGI [24] | TGI [25] | TGI [26] | TGI [27] | TGI [28] | TGI [29] | TGI [30] | TGI [31] | TGI [32] | TGI [33] | TGI [34] | TGI [35] | TGI [36] | TGI [37] | TGI [38] | TGI [39] | TGI [40] | TGI [41] | TGI [42] | TGI [43] | TGI [44] | TGI [45] | TGI [47] | TGI [48]
45.6 µM: TGI [9]

CC[O-].CC[O-].O=C([CH-]C(=O)c1ccccc1)CCCCCCC(=O)[CH-]C(=O)c1ccccc1.[Ti+4]
> 100 µM: TGI [1] | TGI [2] | TGI [3] | TGI [4] | TGI [5] | TGI [6] | TGI [7] | TGI [8] | TGI [10] | TGI [11] | TGI [12] | TGI [14] | TGI [15] | TGI [49] | TGI [16] | TGI [50] | TGI [17] | TGI [18] | TGI [19] | TGI [20] | TGI [21] | TGI [51] | TGI [22] | TGI [52] | TGI [23] | TGI [53] | TGI [24] | TGI [25] | TGI [26] | TGI [27] | TGI [28] | TGI [54] | TGI [29] | TGI [30] | TGI [31] | TGI [55] | TGI [33] | TGI [34] | TGI [35] | TGI [36] | TGI [56] | TGI [37] | TGI [38] | TGI [39] | TGI [40] | TGI [41] | TGI [43] | TGI [57] | TGI [44] | TGI [45] | TGI [46] | TGI [47] | TGI [48]
inactive: GI50 [1] > 100 µM | GI50 [2] > 100 µM | GI50 [3] > 100 µM | GI50 [4] > 100 µM | GI50 [5] > 100 µM | GI50 [6] > 100 µM | GI50 [7] > 100 µM | GI50 [8] > 100 µM | GI50 [10] > 100 µM | GI50 [11] > 100 µM | GI50 [12] > 100 µM | GI50 [14] > 100 µM | GI50 [15] > 100 µM | GI50 [49] > 100 µM | GI50 [16] > 100 µM | GI50 [50] > 100 µM | GI50 [17] > 100 µM | GI50 [18] > 100 µM | GI50 [19] > 100 µM | GI50 [20] > 100 µM | GI50 [21] > 100 µM | GI50 [51] > 100 µM | GI50 [22] > 100 µM | GI50 [52] > 100 µM | GI50 [23] > 100 µM | GI50 [53] > 100 µM | GI50 [24] > 100 µM | GI50 [25] > 100 µM | GI50 [26] > 100 µM | GI50 [27] > 100 µM | GI50 [28] > 100 µM | GI50 [54] > 100 µM | GI50 [29] > 100 µM | GI50 [30] > 100 µM | GI50 [31] > 100 µM | GI50 [55] > 100 µM | GI50 [33] > 100 µM | GI50 [34] > 100 µM | GI50 [35] > 100 µM | GI50 [36] > 100 µM | GI50 [56] > 100 µM | GI50 [37] > 100 µM | GI50 [38] > 100 µM | GI50 [39] > 100 µM | GI50 [40] > 100 µM | GI50 [41] > 100 µM | GI50 [43] > 100 µM | GI50 [57] > 100 µM | GI50 [44] > 100 µM | GI50 [45] > 100 µM | GI50 [46] > 100 µM | GI50 [47] > 100 µM | GI50 [48] > 100 µM

O=C(C=Nc1ccccc1S)c1ccco1
6.77 µM: TGI [47]
33.7 µM: TGI [5]
32.7 µM: TGI [41]
10.1 µM: TGI [37]
16.3 µM: TGI [39]
37.7 µM: TGI [17]
27.4 µM: TGI [14]
26.4 µM: TGI [28]
10.2 µM: TGI [6]
22.2 µM: TGI [18]
31 µM: TGI [9]
22.4 µM: TGI [3]
33.1 µM: TGI [35]
> 100 µM: TGI [2] | TGI [4] | TGI [26]
36.6 µM: TGI [12]
29.5 µM: TGI [46]
15.9 µM: TGI [22]
31.8 µM: TGI [1]
32.8 µM: TGI [43]
29 µM: TGI [31]
45.8 µM: TGI [19]
21.5 µM: TGI [38]
34.7 µM: TGI [21]
27.3 µM: TGI [29] | TGI [34]
31.7 µM: TGI [10] | TGI [56]
31.3 µM: TGI [20]
inactive: GI50 [1] 16.6 µM | GI50 [2] > 100 µM | GI50 [4] > 100 µM | GI50 [12] 20.6 µM | GI50 [22] 4.57 µM | GI50 [52] 15 µM | GI50 [26] > 100 µM | GI50 [32] 7.22 µM | GI50 [37] 3.2 µM | GI50 [40] 17.7 µM
28.1 µM: TGI [8]
28.7 µM: TGI [52]
31.2 µM: TGI [27]
30.1 µM: TGI [36]
35.1 µM: TGI [53]
27 µM: TGI [23]
30.2 µM: TGI [11]
32.1 µM: TGI [7] | TGI [45]
10.4 µM: TGI [13]
27.5 µM: TGI [24]
15.6 µM: TGI [25]
33.4 µM: TGI [57]
15.2 µM: TGI [16]
46.1 µM: TGI [30]
25.7 µM: TGI [32]
18.8 µM: TGI [33]
22.3 µM: TGI [15]
28.8 µM: TGI [58]
37.1 µM: TGI [49]
40.7 µM: TGI [55]
18.7 µM: TGI [44]
31.9 µM: TGI [40]
